Drawing on ChEMBL document CHEMBL3639308, “Substituted naphthyridines and their use as medicaments” (2015), this text covers IC50 for 1 compound.

Structures are written as SMILES.

This assay concerns the target Tyrosine-protein kinase SYK (Homo sapiens, UniProt P43405).

With `COc1cc(-c2cc3ncccc3c(O[C@H](C)[C@H]3CNC(=O)C3)n2)ccc1OC(F)(F)F`, the half-maximal inhibitory concentration (IC50) came out at 1.9 nM.
